The values that follow come from the Kinase Knowledgebase extract (Sharma et al. 2016).

Values joined by “and” are separate entries in the source; they are usually repeats but may differ in a detail not shown here. Equal values may be shown once.

For one experiment, the target named is MAPK14 (human) (UniProt Q16539). Briefly: LPS-induced TNF-alpha Release Inhibition (Human Blood).
In another experiment the target is MAPK14 (UniProt Q16539). Nature of the experiment: p38-alpha Kinase Inhibition.
Chain of MAPK14 (Q16539 whole entry, looked up): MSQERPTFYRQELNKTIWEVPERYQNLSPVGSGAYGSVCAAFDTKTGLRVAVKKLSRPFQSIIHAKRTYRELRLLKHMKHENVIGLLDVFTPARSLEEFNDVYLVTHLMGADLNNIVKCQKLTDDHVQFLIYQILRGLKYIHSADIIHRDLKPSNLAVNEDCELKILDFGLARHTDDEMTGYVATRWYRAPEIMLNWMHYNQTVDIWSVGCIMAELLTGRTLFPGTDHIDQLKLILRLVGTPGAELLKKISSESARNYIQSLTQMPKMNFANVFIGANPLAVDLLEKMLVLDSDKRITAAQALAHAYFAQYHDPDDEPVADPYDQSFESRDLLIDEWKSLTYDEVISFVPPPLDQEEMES
The subject of experiment [1] is MAPK14 (rat). Nature of the experiment: Secondary Paw Swelling Inhibition (Arthritis Rat).
For experiment [2], the system named is MAPK14 (rat).

Chain of MAPK14 (human) (Q16539 whole entry, looked up): as above

On MAPK14 (human), `Fc1ccc(-c2nc(C3CCCCC3)[nH]c2-c2ccncc2)cc1` showed an IC50 of 34 nM.

On MAPK14 (human), `Nc1nccc(-c2[nH]c(-c3ccccc3)nc2-c2ccccc2)n1` returned an IC50 of over 100000 nM.

With `c1ccc(-c2nc(-c3ccccc3)c(-c3ccncn3)[nH]2)cc1`, the IC50 on MAPK14 (human) was over 100000 nM.

In turn, `COc1ccc(CNc2nccc(-c3[nH]c(-c4ccccc4)nc3-c3ccccc3)n2)cc1` showed an IC50 at MAPK14 (human) of over 100000 nM.

As for `Nc1nccc(-c2[nH]c(C3CCNCC3)nc2-c2cccc(C(F)(F)F)c2)n1`, the IC50 against MAPK14 (human) was determined as 190 nM.

As for `C[C@H](Nc1nccc(-c2[nH]c(-c3ccccc3)nc2-c2cccc(C(F)(F)F)c2)n1)c1ccccc1`, the values for the IC50 against MAPK14 and against MAPK14 (human) were 0.75 nM and 6 nM, respectively.

The molecule `COc1ccc(CNc2nccc(-c3[nH]c(C4CCNCC4)nc3-c3cccc(C(F)(F)F)c3)n2)cc1` displayed an IC50 against MAPK14 (human) of 290 nM.

For the molecule `COc1ccc2c(c1)c(CC(=O)O)c(C)n2C(=O)c1ccc(Cl)cc1`, in the experiment with MAPK14 (rat) [1], the score is 5.5 and 4.9.

As to `CNc1nccc(-c2[nH]c(-c3ccccc3)nc2-c2ccccc2)n1`, the IC50 against MAPK14 (human) was over 100000 nM.

Turning to `C[C@@H](Nc1nccc(-c2[nH]c(-c3ccccc3)nc2-c2cccc(C(F)(F)F)c2)n1)c1ccccc1`, the IC50 was determined as 0.97 nM at MAPK14 and 0.4 nM at MAPK14 (human).

As to `C[C@H](Nc1nccc(-c2nc(C3CCNCC3)n(C)c2-c2cccc(C(F)(F)F)c2)n1)c1ccccc1`, at MAPK14 (human), the IC50 came to 24000 nM.

At MAPK14 (human), `Fc1ccc(-c2nc[nH]c2-c2ccncc2)cc1` registered an IC50 of over 10000 nM.

`FC(F)(F)c1cccc(-c2nc(-c3ccccc3)[nH]c2-c2ccncc2)c1` registered an IC50 on MAPK14 (human) of over 100000 nM.

`Fc1ccc(-c2nc(C3CCNCC3)[nH]c2-c2ccncc2)cc1` displayed an IC50 on MAPK14 (human) of 175 nM.

The molecule `C[C@H](Nc1cc(-c2c(-c3cccc(C(F)(F)F)c3)nc(C3CCNCC3)n2C)ccn1)c1ccccc1` came in with an ED50 in the experiment on MAPK14 (rat) [1] of 8.2 mg/kg/day. Moreover, the inhibition with MAPK14 (rat) [1] (dose or concentration not given here) was 76%. In the experiment with MAPK14 (rat) [2], this molecule gave an ID50 of 17.5 mg/kg/day.

As for `Fc1ccc(-c2nc(C3CCCNC3)[nH]c2-c2ccncc2)cc1` (stereo not given), the IC50 against MAPK14 (human) is 585 nM.
